Data published in paper PMC6792352, “Limited Chemical Structural Diversity Found to Modulate Thyroid Hormone Receptor in the Tox21 Chemical Library” (Environmental Health Perspectives, 2019).
Structures can show the parent of a compound that is named as a salt.

Assay: in vitro
Conditions: rat, gh3-tre-luc cells

Compound | CC50 at 24 h (AC50 (uM) modified / 1000) | other results
CCO[Si](C)(CCCOCC1CO1)OCC (centres unmarked) [Diethoxy(methyl)[3-(oxiran-2-ylmethoxy)propyl]silane] | > 90 µM | –
CCOC(=O)/C=C/C(=O)OCC [Diethyl (2E)-but-2-enedioate] | > 90 µM | –
CCOC(=O)CCC(=O)OCC [Diethyl butanedioate] | > 90 µM | –
CCOC(=O)OCC [Diethyl carbonate] | > 100 µM | –
CCOC(=O)CCCCCCCCC(=O)OCC [Diethyl decanedioate] | > 90 µM | –
CCOC(=O)/C=C\C(=O)OCC [Diethyl maleate] | > 90 µM | –
CCOC(=O)C(=O)OCC [Diethyl oxalate] | > 90 µM | –
CCOC(=O)c1ccccc1C(=O)OCC [Diethyl phthalate] | > 90 µM | –
CCOC(=O)CC(=O)OCC [Diethyl propanedioate] | > 90 µM | –
CCOS(=O)(=O)OCC [Diethyl sulfate] | > 90 µM | –
CCSCC [Diethyl sulfide] | > 100 µM | –
CCN(CC)C(C)=O [Diethylacetamide] | > 100 µM | –
CCNCC [Diethylamine] | > 100 µM | –
CCN(CC)CCOC[C@H]1O[C@@H](O)[C@H](OCCN(CC)CC)[C@@H](O)[C@@H]1O [Diethylaminoethyl-sephacel] | > 50 µM | –
CCN(CC)C(=O)N1CCN(C)CC1 [Diethylcarbamazine citrate] | > 20 µM | –
C=CC(=O)OCCOCCOC(=O)C=C [Diethylene glycol diacrylate] | 21.6 µM | –
O=C(OCCOCCOC(=O)c1ccccc1)c1ccccc1 [Diethylene glycol dibenzoate] | > 90 µM | –
CCCCOCCOCCOCCCC [Diethylene glycol dibutyl ether] | > 90 µM | –
CCOCCOCCOCC [Diethylene glycol diethyl ether] | > 90 µM | –

Compound | CC50 at 24 h (AC50 (uM) modified / 1000) | other results
COCCOCCOC [Diethylene glycol dimethyl ether] | > 90 µM | –
COCCOCCO [Diethylene glycol monomethyl ether] | > 90 µM | –
OCCOCCO [Diethylene glycol] | > 90 µM | –
NCCNCCN [Diethylenetriamine] | > 90 µM | –
CCN(C=O)CC [Diethylformamide] | > 90 µM | –
CCN(CC)C(C)C(=O)c1ccccc1 (centres unmarked) [Diethylpropion hydrochloride] | > 50 µM | –
CC/C(=C(/CC)c1ccc(OP(=O)(O)O)cc1)c1ccc(OP(=O)(O)O)cc1 [Diethylstilbestrol diphosphate] | > 50 µM | –
CCC(=O)Oc1ccc(/C(CC)=C(\CC)c2ccc(OC(=O)CC)cc2)cc1 [Diethylstilbestrol dipropionate] | > 90 µM | –
CC1COC(Cn2cncn2)(c2ccc(Oc3ccc(Cl)cc3)cc2Cl)O1 (centres unmarked) [Difenoconazole] | 41.3 µM | –
Cn1c(-c2ccccc2)cc(-c2ccccc2)[n+]1C [Difenzoquat metilsulfate] | – | CC50 at 24 h (AC50 (uM) modified / 1000, Tox21_110001=Tox21_201486, viability, 1 nM T3 present, 24 h): > 90 µM
CC(C(O)c1ccccc1)N(C)CCOC(c1ccccc1)c1ccccc1 (centres unmarked) [Difeterol] | 15.1 µM | –
CC(=O)OCC(=O)[C@@]1(OC(C)=O)[C@@H](C)C[C@H]2[C@@H]3C[C@H](F)C4=CC(=O)C=C[C@]4(C)[C@@]3(F)[C@@H](O)C[C@@]21C [Diflorasone diacetate] | > 50 µM | –
CN1CCN(c2cc3c(cc2F)c(=O)c(C(=O)O)cn3-c2ccc(F)cc2)CC1 [Difloxacin hydrochloride] | > 50 µM | –
O=C(NC(=O)c1c(F)cccc1F)Nc1ccc(Cl)cc1 [Diflubenzuron] | > 90 µM | –
O=C(Nc1ccc(F)cc1F)c1cccnc1Oc1cccc(C(F)(F)F)c1 [Diflufenican] | > 100 µM | –
C/C(=N\NC(=O)Nc1cc(F)cc(F)c1)c1ncccc1C(=O)O [Diflufenzopyr-sodium] | – | CC50 at 24 h (AC50 (uM) modified / 1000, Tox21_110001=Tox21_300997, viability, 1 nM T3 present, 24 h): > 90 µM
O=C(O)c1cc(-c2ccc(F)cc2F)ccc1O [Diflunisal] | > 20 µM | –
CCCC(=O)O[C@]1(C(=O)COC(C)=O)CC[C@H]2[C@@H]3C[C@H](F)C4=CC(=O)C=C[C@]4(C)[C@@]3(F)[C@@H](O)C[C@@]21C [Difluprednate] | > 50 µM | –
COc1ccc(-n2nc(C(F)F)cc2-c2ccc([S+](C)[O-])cc2)cc1 (centres unmarked) [Difpas-pyrazole] | > 90 µM | –

Compound | CC50 at 24 h (AC50 (uM) modified / 1000) | other results
O=C1c2ccccc2CN2C(=O)c3ccccc3CN12 [Diftalone] | > 50 µM | –
C[C@@H]1CC[C@@]2(OC1)O[C@H]1[C@@H](O)[C@H]3[C@@H]4CC[C@H]5C[C@@H](O[C@@H]6O[C@H](CO)[C@H](O[C@@H]7O[C@H](CO)[C@@H](O)[C@H](O[C@@H]8OC[C@@H](O)[C@H](O)[C@H]8O)[C@H]7O[C@@H]7O[C@H](CO)[C@H](O)[C@H](O[C@@H]8O[C@H](CO)[C@@H](O)[C@H](O)[C@H]8O)[C@H]7O)[C@H](O)[C@H]6O)[C@H](O)C[C@]5(C)[C@H]4CC[C@]3(C)[C@H]1[C@@H]2C [Digitonin] | 1.67 µM | –
C[C@H]1O[C@@H](O[C@H]2[C@@H](O)C[C@H](O[C@H]3[C@@H](O)C[C@H](O[C@H]4CC[C@@]5(C)[C@H](CC[C@@H]6[C@@H]5CC[C@]5(C)[C@@H](C7=CC(=O)OC7)CC[C@]65O)C4)O[C@@H]3C)O[C@@H]2C)C[C@H](O)[C@@H]1O [Digitoxin] | > 60 µM | –
c1cc(OCC2CO2)cc(OCC2CO2)c1 (centres unmarked) [Diglycidyl resorcinol ether] | 17.3 µM | –
O=C(O)COCC(=O)O [Diglycolic acid] | > 90 µM | –
C[C@H]1O[C@@H](O[C@H]2[C@@H](O)C[C@H](O[C@H]3[C@@H](O)C[C@H](O[C@H]4CC[C@@]5(C)[C@H](CC[C@@H]6[C@@H]5C[C@@H](O)[C@]5(C)[C@@H](C7=CC(=O)OC7)CC[C@]65O)C4)O[C@@H]3C)O[C@@H]2C)C[C@H](O)[C@@H]1O [Digoxin] | > 90 µM | –
CCCCCCOC(=O)CCCCC(=O)OCCCCCC [Dihexyl hexanedioate] | > 90 µM | –
CCCCCCOC(=O)CCCCCCCC(=O)OCCCCCC [Dihexyl nonanedioate] | > 90 µM | –
CCCCCCOC(=O)c1ccccc1C(=O)OCCCCCC [Dihexyl phthalate] | > 90 µM | –
NNc1nnc(NN)c2ccccc12 [Dihydralazine] | > 50 µM | –
CC1C(C)(C)C2=C(C(=O)CCC2)C1(C)C (centres unmarked) [Dihydro-1,1,2,3,3-pentamethyl-4(5H)-indanone] | > 90 µM | –
CCCCCCCCCCCCCCCC/C=C/C1CC(=O)OC1=O (centres unmarked) [Dihydro-3-(octadecenyl)-2,5-furandione] | 36 µM | –
CC(=O)CCC1=C(C)CCCC1(C)C [Dihydro-beta-ionone] | > 90 µM | –
CC(C)C[C@H]1C(=O)N2CCC[C@H]2[C@]2(O)O[C@](NC(=O)[C@@H]3C[C@@H]4c5cccc6[nH]cc(c56)C[C@H]4N(C)C3)(C(C)C)C(=O)N12 [Dihydroergocriptine] | – | CC50 at 24 h (AC50 (uM) modified / 1000, Tox21_110001=Tox21_113078, viability, 1 nM T3 present, 24 h): 39.2 µM
CN1C[C@H](C(=O)N[C@]2(C)O[C@@]3(O)[C@@H]4CCCN4C(=O)[C@H](Cc4ccccc4)N3C2=O)C[C@@H]2c3cccc4[nH]cc(c34)C[C@H]21 [Dihydroergotamine] | 19.3 µM | –
COc1ccc2c3c1O[C@H]1[C@H](O)CC[C@H]4[C@@H](C2)N(C)CC[C@@]341 [Dihydroisocodeine] | > 90 µM | –
CCCCCCC1(C)CCC(=O)O1 (centres unmarked) [Dihydrojasmone lactone] | > 90 µM | –
COC1=CC(=O)O[C@@H](CCc2ccccc2)C1 [Dihydrokavain] | > 100 µM | –
